Tests used:
Assay type in all cases: cell-based
[1] = Cytotoxicity assay (MTT cell proliferation assay), hNPC1L1/MDCKII cells; conditions: dog, MDCKII cells stably expressing human NPC1L1 (hNPC1L1/MDCKII), 72 h incubation, read-out: hNPC1L1MDCKII LC50
Protocol: (§1) The cells were grown at 37° C. in a humidified 5% CO2 incubator. Stable transfection of MDCKII cells with human NPC1L1 protein was performed using the Lipofectamine LTX (Invitrogen, USA) according to the manufecturer's protocol. Selection with 1000 μg/mL G418 (Sigma-Aldrich, Germany) was started 2 days after transfection. The concentration of G418 was decreased to 500 μg/mL after 14 days. Transfected cells were maintained in DMEM (Dulbecco's Modified Eagle Medium) containing 100 units/mL penicillin and 100 μg/mL streptomycin supplemented with 10% FCS and 500 μg/mL G418.
(§2) For the cytotoxicity determination, MDCKII, hNPC1L1/MDCKII and HepG2 cells were seeded in 96-well microtiter plates on day 0 at the density of 3000 cells/well. […] The compound cytotoxicity was assessed on day 4 performing the MTT cell proliferation assay (Sigma-Aldrich, Germany) which detects mitochondrial dehydrogenase activity in viable cells. (Mosmann, T. J. Immunol. Methods 1983, 65, 55.) The results are expressed as LC50 and the values for each compound were calculated from dose-response curves using linear regression analysis. Each concentration was tested in quadruplicate in three independent experiments (Table 1).

[2] = Cytotoxicity assay (MTT cell proliferation assay), HepG2 cells; conditions: human, 72 h incubation, read-out: HepG2 LC50
Protocol: as §1, §2

[3] = Cytotoxicity assay (MTT cell proliferation assay), MDCKII cells; conditions: dog, 72 h incubation, read-out: MDCKII LC50
Protocol: as §1, §2

[4] = test system: MDCKII cells stably expressing human NPC1L1 (hNPC1L1/MDCKII); assay: Cytotoxicity assay (MTT cell proliferation assay), hNPC1L1/MDCKII cells; conditions: 72 h incubation, read-out: hNPC1L1MDCKII LC50
Protocol: as §1, §2

Structure (SMILES) | CC50 at 72 h [1] | CC50 at 72 h [2] | CC50 at 72 h [3] | CC50 [4]
O=C1[C@H](NCC(O)c2ccc(F)cc2)[C@@H](c2ccc(O)cc2)N1c1ccc(F)cc1 (mixture of isomers) [8/9-70/30, (3R,4R)-3-[(2R/S)-2-(4-fluorophenyl)-2-hydroxyethylamino]-1-(4-fluorophenyl)-4-(4-hydroxyphenyl)azetidin-2-one] | > 100 µM | > 100 µM | > 100 µM | –
O=C(/C=C/c1ccc(F)cc1)N[C@H]1C(=O)N(c2ccc(F)cc2)[C@@H]1c1ccc(O)cc1 [Compound 3, (E)-1-[(3R,4R)-1-(4-fluorophenyl)-4-(4-hydroxyphenyl)-2-oxo-3-azetidinylamino]-3-(4-fluorophenyl)-2-propen-1-one] | – | – | – | 63.3 µM
O=C1[C@H](NC[C@H](O)c2ccc(F)cc2)[C@@H](c2ccc(O)cc2)N1c1ccc(F)cc1 [Compound 8, (3R,4R)-3-[(2R)-2-(4-fluorophenyl)-2-hydroxyethylamino]-1-(4-fluorophenyl)-4-(4-hydroxyphenyl)azetidin-2-one] | > 100 µM | > 100 µM | > 100 µM | –
O=C1[C@H](NC[C@@H](O)c2ccc(F)cc2)[C@@H](c2ccc(O)cc2)N1c1ccc(F)cc1 [Compound 9, (3R,4R)-3-[(2S)-2-(4-fluorophenyl)-2-hydroxyethylamino]-1-(4-fluorophenyl)-4-(4-hydroxyphenyl)azetidin-2-one] | > 100 µM | > 100 µM | > 100 µM | –

Reference: patent US9926269B2, “Beta-lactam cholesterol absorption inhibitors” (Rudjer Boskovic Institute, priority 2013, dated 2018)
